We go through 26 molecules from PubChem BioAssay (NCI).

Test in all cases: NCI-60 cell line screen, 48 h
For assay [1], the system named is PC-3 prostate.
Assay [2] deals with EKVX NSCLC.
The subject of assay [3] is HCT-15 colon.
Assay [4] concerns HCT-116 colon.
Assay [5] concerns KM12 colon.
In assay [6] the test system is U251 CNS.
For assay [7], the system named is SF-295 CNS.
Assay [8] relates to CCRF-CEM leukemia.
Assay [9] deals with SR leukemia.
Assay [10] has as its system OVCAR-3 ovarian.

“And” between values parts separate entries of the source, which are not always exact repeats. Equal entries are not always repeated.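 In this assay, cells in 96-well plates receive the compound at five concentrations for 48 hours. Endpoints are linearly interpolated between the surrounding concentrations. Here, GI50 denotes the concentration required for 50% inhibition of growth. TGI denotes the concentration required for complete inhibition of growth.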

For `COc1ccccc1NCC(=O)Nn1c(C)nc2ccc(S(=O)(=O)Nc3ccccc3OC)cc2c1=O`, the TGI in assay [1], in [2], in [3], in assay [4], in assay [5] and in assay [6] was greater than 100 µM throughout. For the same molecule, the TGI in [7], in assay [8], in assay [9] and in assay [10] was greater than 100 µM throughout.

With `COC(=O)[C@H](CCSC)NC(=O)c1ccc(CNC(=O)/C(C)=C/c2ccccc2)cc1`, the TGI in assay [1], in assay [2], in assay [3], in [4], in assay [5] and in [6] was greater than 100 µM throughout. In addition, the TGI in assay [7], in [8], in [9] and in assay [10] was greater than 100 µM throughout.

For `CN(C)CCNc1nc2c(no[n+]2[O-])c2ccccc12`, the TGI was found to be 89.5 µM in assay [1]; 73.9 µM in [2]; 57.4 µM in assay [3]; 52.9 µM in assay [4]; 58.9 µM in assay [5]; 83.8 µM in [6]. The TGI in [7] is 81.9 µM; in [8] it was greater than 100 µM; in assay [9], 74.8 µM; in assay [10], 71.7 µM.

In the case of `CCCC1(N)CC(OC)OC(C)C1O` (stereo not drawn), the TGI in assay [1], in [2], in assay [3], in assay [4], in [5] and in [6] was greater than 100 µM each time. The TGI in [7], in assay [8], in assay [9] and in assay [10] was greater than 100 µM each time.

Take `CCOP(=O)(OCC)C(Nc1ccc(F)cc1)c1ccccc1` (stereo not drawn): the TGI in assay [1], in assay [2], in assay [3], in assay [4], in assay [5] and in assay [6] was greater than 100 µM throughout. The TGI in [7], in [8], in assay [9] and in assay [10] was greater than 100 µM in each case.

On to `CC(C)c1cccc(C(C)C)c1OS(=O)(=O)NC(=O)OC(C(F)(F)F)C(F)(F)F`, for which the TGI in assay [1], in assay [2], in assay [3], in assay [4], in [5] and in [6] was greater than 100 µM throughout. For the same molecule, the TGI is 65.3 µM in assay [7], greater than 100 µM in [8] and greater than 100 µM in [9].

For the molecule `OC(CN1CCCCC1)c1ccc(/C=C/c2ccc(Cl)cc2)cc1` (stereo not drawn), the TGI in [1] was greater than 100 µM; in [2], greater than 100 µM; in assay [3], 76.3 µM; in assay [4], greater than 100 µM; in [5], 40.3 µM; in [6] it was greater than 100 µM. For the same molecule, the TGI in [7], in [8], in assay [9] and in assay [10] was greater than 100 µM throughout.

Regarding `C=CCC(CNC(=O)OCc1ccccc1)OC(=O)OCc1ccccc1` (stereo not drawn), the TGI in [1], in assay [2], in assay [3], in assay [4], in assay [5] and in assay [6] was greater than 100 µM throughout. Moreover, the TGI in assay [7] was greater than 100 µM; in assay [8], greater than 100 µM; in assay [9], 62 µM; in assay [10] it was greater than 100 µM.

Take `Nc1ccc(-c2nc3ccccc3s2)cc1Br`: the TGI in [1], in assay [2], in assay [3], in assay [5], in [6] and in [7] was greater than 100 µM throughout. Further, the TGI in assay [8], in [9] and in assay [10] was greater than 100 µM throughout.

On to `CC1CC[C@@]2(OC1)OC1C[C@H]3[C@@H]4CCC5CC(O)CC[C@]5(C)[C@H]4C/C(=N\N(C)C)[C@]3(C)C1[C@@H]2C` (stereo partly drawn), for which the TGI was 84.6 µM in assay [1]; 60.3 µM in assay [3]; 60.3 µM in assay [4]; 85.2 µM in [5]; greater than 100 µM in assay [6]; greater than 100 µM in assay [8]. Also, the TGI in assay [9] came to 60.6 µM; in [10] it was 38.6 µM.

Consider `CC[C@H](C)C1=C(OC(C)=O)[N@+]2([O-])Oc3ccc(-c4c(OC(C)=O)c(OC(C)=O)c(-c5ccc(OC(C)=O)cc5)c(OC(C)=O)c4OC(C)=O)cc3O[C@]2([C@@H](C)CC)C(=O)N1OC(C)=O`, for which the TGI is 30 µM in assay [1]; 22.5 µM in assay [2]; greater than 50 µM in [3]; greater than 50 µM in [4]; greater than 50 µM in assay [5]; greater than 50 µM in assay [6]. Also, the TGI in assay [7] worked out at 27.1 µM; in [8] it was 11.3 µM; in assay [9] it was 28 µM; in assay [10] it was 23.4 µM.

`CC(=O)C1(O)Cc2c(O)c3c(c(O)c2C(OC2CC(N)C(O)C(C)O2)C1)C(=O)c1ccccc1C3=O` (stereo not drawn): the GI50 was 0.0437 µM in [1]; 0.0826 µM in assay [2]; 0.0156 µM in assay [3]; 0.0167 µM in assay [5]; less than 0.0115 µM in assay [6]; 0.00214 µM in assay [8]. In assay [10], the GI50 is 0.0375 µM. Moreover, the TGI in assay [1] was 0.741 µM; in assay [2] it was 0.811 µM; in [3], 0.52 µM and 0.348 µM; in assay [4], 0.62 µM and 0.174 µM; in assay [5], 0.713 µM and 0.227 µM; in assay [6], 0.419 µM and 0.13 µM. The TGI in [7] was 0.388 µM and 0.0514 µM; in [9], 0.0813 µM; in assay [10], 0.987 µM and 0.475 µM.

`CN(C)c1ccc(/C=c2/c3cc([N+](=O)[O-])ccc3n3c2cc(-c2ccccc2)[n+]3C)cc1`: the TGI came to 7.27 µM in [1]; 7.81 µM in [2]; 42.1 µM in [3]; 5.84 µM in assay [4]; 2.59 µM in [5]; 1.32 µM in assay [6]. For the same molecule, the TGI in [7] worked out at 7.51 µM; in assay [8], 5.57 µM; in assay [9], 3.02 µM; in [10] it was 5.48 µM.

For the molecule `CCN(CC)CCC(=O)c1ccc(Oc2ccc(F)cc2)cc1`, the TGI in assay [1] was 71.9 µM; in assay [2], 39.4 µM; in assay [3], 36.7 µM; in assay [4] it was 30.3 µM; in [5], 36.6 µM; in assay [6], 31.1 µM. Also, the TGI in assay [7] is greater than 100 µM; in assay [8], 50.1 µM; in assay [9], greater than 100 µM; in [10] it was 34.5 µM.

On to `CC(=O)O[C@H]1CC[C@H]2[C@@H]3CCC(C(C)=O)[C@H](C(=O)O)[C@H]3CC[C@]12C` (stereo partly drawn), for which the TGI in assay [1], in assay [2], in assay [3], in assay [5], in assay [6] and in [7] was greater than 100 µM in each case. Besides, the TGI in [8], in [9] and in assay [10] was greater than 100 µM throughout.

With `Cc1ncc([N+](=O)[O-])n1CCNC(=O)CCCCCn1ccnc1[N+](=O)[O-]`, the TGI in assay [1], in assay [3], in assay [4], in [5], in [6] and in [7] was greater than 100 µM throughout. Besides, the TGI in assay [8], in assay [9] and in assay [10] was greater than 100 µM throughout.

As for `CCCCNC(=S)Nc1nc(C(=O)NNC(=O)c2ccccc2)cs1`, the TGI is 39.7 µM in [1]; greater than 100 µM in [2]; 26.1 µM in assay [3]; 27.1 µM in assay [4]; 36.9 µM in assay [5]; greater than 100 µM in assay [6]. Besides, the TGI in assay [7] was 33.9 µM; in assay [8], greater than 100 µM; in assay [9], greater than 100 µM; in assay [10] it was 19.7 µM.

On to `CCOC(=O)CC[C@H](N)C(=O)N[C@H](Cc1ccc(N(CCCl)CCCl)cc1)C(=O)OCC`, for which the TGI in [1] is 17.7 µM; in assay [2] it was 19.1 µM; in [3], 10.6 µM; in assay [4], greater than 36.2 µM; in assay [5] it was 15.9 µM; in [6] it was greater than 33.7 µM. Moreover, the TGI in assay [7] is 23 µM; in assay [8] it was greater than 100 µM; in assay [9] it was greater than 33.6 µM; in assay [10] it was 10.1 µM.

Regarding `CN(C)CCn1nc(N)c2nc3cc(C(F)(F)F)ccc3nc21`, the TGI in [1], in assay [2], in [3], in assay [4], in assay [5] and in assay [6] was greater than 100 µM throughout. Besides, the TGI in [7], in assay [8] and in assay [9] was greater than 100 µM in each case.

Regarding `COc1ccc(C[C@@H]2OC3(C=CC(=O)C=C3)O[C@H]2Cc2ccc(OC)cc2)cc1`, the TGI was determined as 3.47 µM in [1]; 3.7 µM in assay [2]; 0.77 µM in [3]; 0.33 µM in assay [4]; 5.04 µM in [5]; 2.75 µM in [6]. Also, the TGI is 7.89 µM in assay [7], 0.521 µM in assay [8], 1.84 µM in [9] and 2.31 µM in assay [10].

As for `COc1ccc2[nH]c(O)c(/C=c3/cc4c(c(-c5ccc(F)cc5)n3)=Nc3ccccc3-4)c2c1`, the GI50 is 8.26 µM in [1]; 23.2 µM in [2]; 1.91 µM in [3]; 1.67 µM in assay [4]; 1.78 µM in assay [5]; 1.68 µM in assay [6]. Further, the GI50 in assay [7] is 10.5 µM; in [9], 1.07 µM; in assay [10], 1.82 µM. Also, the TGI in [1] was greater than 100 µM; in assay [2], greater than 100 µM; in [3], 4.35 µM; in [4], 3.04 µM; in assay [5] it was 4.46 µM; in assay [6], 3.26 µM. The figures for the TGI in assay [7], in assay [9] and in assay [10] were 31.2 µM, 6.65 µM and 3.24 µM, respectively.

For `C=C1c2nc3ccccc3n2C=C(c2ccc(OC)cc2)N1c1ccc(OCCN2CCOCC2)cc1`, the TGI in assay [1], in assay [2], in [3], in [4], in [5] and in assay [6] was greater than 100 µM each time. Further, the TGI was greater than 100 µM in assay [7], greater than 86.9 µM in assay [8], greater than 55.2 µM in assay [9] and greater than 100 µM in assay [10].

`C[N+](C)(N)c1nc(N)c(C#N)c(C#N)c1C#N`: the TGI in assay [1], in assay [2], in assay [3], in assay [4], in [6] and in assay [7] was greater than 10 µM in each case. Besides, the TGI in assay [8], in assay [9] and in assay [10] was greater than 10 µM each time.

Regarding `OC1c2ccccc2C(O)C2OC12` (stereo not drawn), the TGI in [1], in [3], in [4], in assay [5], in [6] and in assay [7] was greater than 100 µM each time. For the same molecule, the TGI in assay [8], in [9] and in [10] was greater than 100 µM each time.

On to `O=P1(c2ccccc2)C2=CCC=CC2C(c2ccccc2)N1Cc1ccccc1` (stereo not drawn), for which the TGI in assay [1] came to 27.6 µM; in assay [2], 28.7 µM; in assay [3], 28.1 µM; in assay [4], 32.2 µM; in assay [5], 28.3 µM; in assay [6], 30.7 µM. Also, the figures for the TGI in assay [7], in assay [8] and in assay [9] were 28.8 µM, 34.9 µM and 53.5 µM, respectively.

Turning to `C#CCOC(=O)C(N)CCSC` (stereo not drawn), the TGI in assay [1], in assay [2], in [4], in assay [5], in assay [6] and in [7] was greater than 100 µM throughout. For the same molecule, the TGI in [8], in assay [9] and in assay [10] was greater than 100 µM throughout.
